We go through 10 compounds from US4686230A, “Picoline derivative useful as gastric acid secretion inhibitors” (Byk Gulden Lomberg Chemische Fabrik GmbH, priority 1984, dated 1987).

One assay has as its system gastric secretion (HCl). As to the kind of experiment: Inhibition of the HCl secretion of the stomach, Shay rats. The settings on record: total 4 h; for ED25 / ED50: Rattus norvegicus, po, orally; for ED25: dose which reduces HCl secretion by 25% vs control; for ED50: dose which reduces HCl secretion by 50% vs control; for % inhibition of the HCl secretion: after administration of the antiulcer ED50. The class given is in vivo, rat. The method, then: (§1) The investigated compounds according to the invention have been given numbers as follows:
(§2) The effects of the investigated compounds on the formation of stomach lesions induced by pylorus ligature and oral administration of 100 mg/kg of acetylsalicylic acid and the gastric secretion (HCl) for 4 h in rats (so-called Shay rats) are shown in the table which follows.
(§3) + ED25 and ED50 = dose which reduces the lesion index and the HCl
(§4) secretion (Σ4 h) of the rat stomach in the treated group by 25 and
(§5) 50% respectively, as compared with the control group.
++ after administration of the antiulcer ED50
(§6) The ulcers are provoked in rats (female, 180-200 g, 4 animals in each cage on a high grid) kept fasting for 24 hours by pylorus ligature (under diethyl ether anaesthesia) and oral administration of 100 mg/10 ml/kg of acetylsalicylic acid. The substances to be tested are administered orally (10 ml/kg) one hour before the pylorus ligature. The wounds are closed by means of Michel clamps. 4 hours later, the animals are killed under ether intoxication by atlas dislocation and the stomach is resected. The stomach is opened longitudinally and fixed on a cork plate, after first determining the quantity of the secreted gastric juice (volume) and later its HCl content (titration with sodium hydroxide solution); the number and size (=diameter) of existing ulcers was determined by means of a stereomicroscope at 10-fold magnification. The product of the degree of severity (according to the points rating below) and of the number of ulcers is used as the individual lesion index.
(§7) The reduction in the mean lesion index of each treated group as compared with that of the control group (=100%) is taken as the measure of the anti-ulcerogenic effect.

The test system of assay [1] is stomach lesions induced by pylorus ligature and oral administration of 100 mg/kg of acetylsalicylic acid. In words: Protective action on the stomach (anti-ulcerogenic action), Shay rats: pylorus ligature + acetylsalicylic acid. Type of assay: in vivo. The conditions noted are these: Rattus norvegicus, 1 h, orally, dose which reduces the mean lesion index by 50% vs control, given one hour before pylorus ligature, read-out: Protective action on the stomach (rats), inhibition of the lesion index, ED50. The procedure:
as §1, §2, §3, §4, §5
The anti-ulcerogenic action was tested by the method of so-called Shay rats:
as §6, with “index. […]” for “index.”
as §7

Broadly, the ED50 is the dose at which the effect has come halfway, by size or by number of responders.

For `COc1ccnc(C(C)Sc2nc3cc(OC(F)F)c(OC)cc3[nH]2)c1` (stereo not shown) [Serial No. 9, 5-Difluoromethoxy-6-methoxy-2-{[1-(4-methoxy-2-pyridyl)ethyl]thio}-1H-benzimidazole], in the assay with gastric secretion (HCl), the ED25 was less than 1 mg/kg, the ED50 is roughly 4 mg/kg and the “% inhibition of the HCl secretion” value is on record as 35%. Further, in assay [1], the ED50 stood at 1.7 mg/kg.
The like results for `COc1ccnc(C(C)[S+]([O-])c2nc3cc(OC(F)(F)C(F)F)ccc3[nH]2)c1` (stereo not shown) [Serial No. 3, 5-(1,1,2,2-Tetrafluoroethoxy)-2-{[1-(4-methoxy-2-pyridyl)ethyl]sulphinyl}-1H-benzimidazole] were, in that order, 0.35 mg/kg, 0.8 mg/kg, 35% and 0.5 mg/kg.
On to `COc1ccnc(C[S+]([O-])c2nc3cc(OC(F)(F)C(F)Cl)ccc3[nH]2)c1C` (stereo not shown) [compound 10], for which, in the assay with gastric secretion (HCl), the ED25 amounted to 0.4 mg/kg, it took a dose of 0.8 mg/kg to reach the 50% effect level (ED50) and the “% inhibition of the HCl secretion” value is 27%. The ED50 in assay [1] stood at 0.4 mg/kg.
`COc1ccnc(CSc2nc3c(C)c(OC(F)F)c(C)cc3[nH]2)c1C` [Serial No. 8, 5-Difluoromethoxy-2-[(4-methoxy-3-methyl-2-pyridyl)methylthio]-4,6-dimethyl-1H-benzimidazole]: in the assay with gastric secretion (HCl), the ED25 amounted to 1 mg/kg, the ED50 was 1 mg/kg and the “% inhibition of the HCl secretion” value came out at 15%. The ED50 in assay [1] worked out at 0.7 mg/kg.
Take `COc1ccnc(C[S+]([O-])c2nc3c(C)c(OC(F)F)c(C)cc3[nH]2)c1OC` (stereo not shown) [Serial No. 4, 5-Difluoromethoxy-2-[(3,4-dimethoxy-2-pyridyl)-methylsulphinyl]-4,6-dimethyl-1H-benzimidazole]: in the assay on gastric secretion (HCl), the ED25 was roughly 1.3 mg/kg, the ED50 is roughly 2 mg/kg and the “% inhibition of the HCl secretion” value is given as 10%. Also, in assay [1], the ED50 is roughly 1 mg/kg.
As to `COc1ccnc(C[S+]([O-])c2nc3c(C)c(OC(F)F)c(C)cc3[nH]2)c1C` (stereo not shown) [Serial No. 1, 5-Difluoromethoxy-2-[(4-methoxy-3-methyl-2-pyridyl)methylsulphinyl]-4,6-dimethyl-1H-benzimidazole], in the assay with gastric secretion (HCl), the ED25 came out at 0.5 mg/kg, the ED50 turned out to be 1.1 mg/kg and the “% inhibition of the HCl secretion” value was determined as 22%. For the same compound, the ED50 in assay [1] amounted to 0.5 mg/kg.
Regarding `COc1ccnc(C(C)[S+]([O-])c2nc3cc(OC(F)(F)C(F)Cl)ccc3[nH]2)c1` (stereo not shown) [Serial No. 7], in the assay on gastric secretion (HCl), the ED25 is 0.4 mg/kg, the ED50 worked out at 0.8 mg/kg and the “% inhibition of the HCl secretion” value was found to be 40%. In assay [1], the ED50 is 0.6 mg/kg.
As to `COc1ccnc(C[S+]([O-])c2nc3cc(OC(F)(F)C(F)Cl)ccc3[nH]2)c1` (stereo not shown) [Serial No. 6, 5-(2-Chloro-1,1,2-trifluoroethoxy)-2-[(4-methoxy-2-pyridyl)methylsulphinyl]-1H-benzimidazole], in the assay on gastric secretion (HCl), the ED25 came to 0.55 mg/kg, the 50% effective dose (ED50) came out at 1.3 mg/kg and the “% inhibition of the HCl secretion” value was found to be 25%. Besides, in assay [1], the ED50 came out at 0.55 mg/kg.
`COc1ccnc(C(C)[S+]([O-])c2nc3cc(OC(F)F)c(OC)cc3[nH]2)c1` (stereo not shown) [Serial No. 2, 5-Difluoromethoxy-6-methoxy-2-{[1-(4-methoxy-2-pyridyl)ethyl]sulphinyl}-1H-benzimidazole]: in the assay with gastric secretion (HCl), the ED25 is roughly 1 mg/kg, the ED50 was roughly 2 mg/kg and the “% inhibition of the HCl secretion” value is ~ 20%. For the same compound, in assay [1], the ED50 was 0.6 mg/kg.
The like results for `COc1ccnc(C(C)[S+]([O-])c2nc3cc4c(cc3[nH]2)OC(F)(F)O4)c1` (stereo not shown) [compound 5] were, in that order, 1 mg/kg, 1.7 mg/kg, 25% and 1 mg/kg.
